Experimental data: US8916702B2 (priority 2012, dated 2014)
pEC50: −log10 of the molar value. Read-outs that look alike come from different tables or passages of the source.

System: HCV pseudoparticles (genotype 1a HCV E1 and E2 envelope, H77C isolate)
Assay: microbe, parasite or virus in culture
Format: cell-based
Details: Hepatitis C virus
[1] = Huh-7, read-out: Activity (EC50 class), HCV pseudoparticles (genotype 1a, H77C) in Huh7 cells, EC50 expressed as class A/B
[2] = Huh-7, 48 h, read-out: Activity (EC50 class), HCV pseudoparticles, Huh7 cells, luciferase 2 days after infection, average of duplicates
[3] = Huh-7, 48 h, read-out: Activity (EC50 class), HCV pseudoparticle infection of Huh7 cells, luciferase 2 days after infection, EC50 expressed as class A/B
[4] = Huh-7, 48 h, HCV pseudoparticles (genotype 1a, H77C) in Huh7 cells, average of duplicate, luciferase 2 days after infection
[5] = Huh-7, 48 h, HCV pseudoparticles, Huh7 cells, luciferase 2 days after infection, average of duplicates
[6] = Huh-7, 48 h, HCV pseudoparticle infection of Huh7 cells, luciferase 2 days after infection, average of duplicates

Structure (SMILES): COC(=O)[C@@H](CCNC(=O)C(=O)Nc1ccc(Oc2ccc(Cl)cc2Cl)nc1)NC(=O)c1ccc(Nc2nc(NC3(c4ccc(Cl)cc4)CC3)nc(OCC(F)(F)F)n2)cc1 [Compound 3580]
- pEC50 [1]: 6.00 to 8.00

Structure (SMILES): CN(CCCNC(=O)c1ccc(Nc2nc(NC3(c4ccc(Cl)cc4)CC3)nc(OCC(F)(F)F)n2)cc1)C(=O)C(=O)Nc1cc(F)cc(F)c1 [Compound 3451]
- pEC50 [1]: 8.00 to 11.00

Structure (SMILES): O=C(NC/C(=N/C(=O)c1ccc(Nc2nc(NC3(c4ccc(Cl)cc4)CC3)nc(OCC(F)(F)F)n2)cc1)C(=O)O)C(=O)Nc1ccc(-c2ccccc2)cc1 [Compound 3151]
- pEC50 [1]: 8.00 to 11.00

Structure (SMILES): COC(=O)[C@H](CNC(=O)C(=O)Nc1cccc(C(C)C)c1)NC(=O)c1ccc(Nc2nc(NC3(c4ccc(Cl)cc4)CC3)nc(OCC(F)(F)F)n2)cc1 [Compound 3702]
- pEC50 [2]: 8.00 to 11.00

Structure (SMILES): COC(=O)[C@H](CNC(=O)C(=O)Nc1ccc(C)cc1)NC(=O)c1ccc(Nc2nc(NC3(c4ccc(Cl)cc4)CC3)nc(OCC(F)(F)F)n2)cc1 [Compound 3085]
- pEC50 [1]: 8.00 to 11.00

Structure (SMILES): COC(=O)[C@@H](CCNC(=O)C(=O)Nc1ccc(Cl)nc1)NC(=O)c1ccc(Nc2nc(NC3(c4ccc(Cl)cc4)CC3)nc(OCC(F)(F)F)n2)cc1 [Compound 3570]
- pEC50 [1]: 8.00 to 11.00

Structure (SMILES): COC(=O)[C@@H](CCNC(=O)C(=O)NCC1CC1c1cccc(OC)c1)NC(=O)c1ccc(Nc2nc(NC3(c4ccc(Cl)cc4)CC3)nc(OCC(F)(F)F)n2)cc1 (stereo partly shown) [Compound 1416]
- pEC50 [3]: 8.00 to 11.00

Structure (SMILES): O=C(NC[C@H](NC(=O)c1ccc(Nc2nc(NC3(c4ccc(Cl)cc4)CC3)nc(OCC(F)(F)F)n2)cc1)C(=O)O)C(=O)NC1CCCC1 [Compound 1037]
- pEC50 [3]: 8.00 to 11.00

Structure (SMILES): O=C(NC[C@H](NC(=O)c1ccc(Nc2nc(NC3(c4ccc(Cl)cc4)CC3)nc(OCC(F)(F)F)n2)cc1)C(=O)O)C(=O)Nc1ccc(Oc2ccc(Cl)cc2Cl)cc1 [Compound 3753]
- pEC50 [2]: 8.00 to 11.00

Structure (SMILES): COC(=O)[C@H](CCNC(=O)C(=O)Nc1ccc(N(C)c2nc(C)cc(C)n2)cc1)NC(=O)c1ccc(Nc2nc(NC3(c4ccc(Cl)cc4)CC3)nc(OCC(F)(F)F)n2)cc1 [Compound 3133]
- pEC50 [1]: 8.00 to 11.00

Structure (SMILES): COC(=O)[C@H](CCNC(=O)C(=O)NC1CCCC(O)C1)NC(=O)c1ccc(Nc2nc(NC3(c4ccc(Cl)cc4)CC3)nc(OCC(F)(F)F)n2)cc1 (stereo partly shown) [Compound 1070]
- pEC50 [3]: 8.00 to 11.00

Structure (SMILES): CCN(CC)CCOc1cccc(NC(=O)C(=O)NCC[C@H](NC(=O)c2ccc(Nc3nc(NC4(c5ccc(Cl)cc5)CC4)nc(OCC(F)(F)F)n3)cc2)C(=O)O)c1 [Compound 3658]
- pEC50 [2]: 8.00 to 11.00

Structure (SMILES): O=C(Nc1cccc(F)c1)C(=O)N[C@H](CCNC(=O)c1ccc(Nc2nc(NC3(c4ccc(Cl)cc4)CC3)nc(OCC(F)(F)F)n2)cc1)C(=O)O [Compound 3492, (R)-4-(4-((4-((1-(4-chlorophenyl)cyclopropyl)amino)-6-(2,2,2-trifluoroethoxy)-1,3,5-triazin-2-yl)amino)benzamido)-2-(2-((3-fluorophenyl)amino)-2-oxoacetamido)butanoic acid]
- pEC50 [4]: 9.48
- pEC50 [1]: 8.00 to 11.00

Structure (SMILES): Cc1nccn1-c1ccc(NC(=O)C(=O)NCC[C@H](NC(=O)c2ccc(Nc3nc(NC4(c5ccc(Cl)cc5)CC4)nc(OCC(F)(F)F)n3)cc2)C(=O)O)cc1 [Compound 3541]
- pEC50 [1]: 6.00 to 8.00

Structure (SMILES): COC(=O)[C@@H](CCNC(=O)C(=O)NCC1(CN2CCCC2)CC1)NC(=O)c1ccc(Nc2nc(NC3(c4ccc(Cl)cc4)CC3)nc(OCC(F)(F)F)n2)cc1 [Compound 1384]
- pEC50 [3]: 8.00 to 11.00

Structure (SMILES): COC(=O)[C@H](CCNC(=O)C(=O)NCc1ccc(F)cc1)NC(=O)c1ccc(Nc2nc(NC3(c4ccc(Cl)cc4)CC3)nc(OCC(F)(F)F)n2)cc1 [Compound 1145]
- pEC50 [3]: 8.00 to 11.00

Structure (SMILES): Cc1ccc(NC(=O)C(=O)NCC(C)(C)CNC(=O)c2ccc(Nc3nc(NC4(c5ccc(Cl)cc5)CC4)nc(OCC(F)(F)F)n3)cc2)c(C)c1 [Compound 3055]
- pEC50 [4]: 11.02
- pEC50 [1]: 8.00 to 11.00

Structure (SMILES): O=C(NC[C@H](NC(=O)c1ccc(Nc2nc(NC3(c4ccc(Cl)cc4)CC3)nc(OCC(F)(F)F)n2)cc1)C(=O)O)C(=O)Nc1ccc(O)nc1 [Compound 3777]
- pEC50 [2]: 8.00 to 11.00

Structure (SMILES): O=C(NCc1ccc(F)cc1)C(=O)NCC(O)CNC(=O)c1ccc(Nc2nc(NC3(c4ccc(Cl)cc4)CC3)nc(OCC(F)(F)F)n2)cc1 (stereo not shown) [Compound 3368]
- pEC50 [1]: 8.00 to 11.00

Structure (SMILES): O=C(NCCC(NC(=O)c1ccc(Nc2nc(NC3(c4ccc(Cl)cc4)CC3)nc(OCC(F)(F)F)n2)cc1)C(=O)O)C(=O)Nc1ccc(OCCc2ncccn2)cc1 (stereo not shown) [Compound 3536]
- pEC50 [1]: 8.00 to 11.00

Structure (SMILES): O=C(NC[C@H](NC(=O)c1ccc(Nc2nc(NC3(c4ccc(Cl)cc4)CC3)nc(OCC(F)(F)F)n2)cc1)C(=O)Cl)C(=O)Nc1cccc(-n2ccnc2)c1 [Compound 3789]
- pEC50 [2]: 8.00 to 11.00

Structure (SMILES): CC(C)c1cccc(NC(=O)C(=O)NCC[C@H](NC(=O)c2ccc(Nc3nc(NC4(c5ccc(Cl)cc5)CC4)nc(OCC(F)(F)F)n3)cc2)C(=O)O)c1 [Compound 3627]
- pEC50 [5]: 10.00
- pEC50 [2]: 8.00 to 11.00

Structure (SMILES): CC(C)(CNC(=O)C(=O)Nn1cnnc1)CNC(=O)c1ccc(Nc2nc(NC3(c4ccc(Cl)cc4)CC3)nc(OCC(F)(F)F)n2)cc1 [Compound 3253]
- pEC50 [1]: 8.00 to 11.00

Structure (SMILES): O=C(NCC[C@H](NC(=O)c1ccc(Nc2nc(NC3(c4ccc(Cl)cc4)CC3)nc(OCC(F)(F)F)n2)cc1)C(=O)O)C(=O)Nc1ccc(Oc2ccccc2)nc1 [Compound 3640]
- pEC50 [5]: 7.79
- pEC50 [2]: 6.00 to 8.00

Structure (SMILES): O=C(NC/C(=N/C(=O)c1ccc(Nc2nc(NC3(c4ccc(Cl)cc4)CC3)nc(OCC(F)(F)F)n2)cc1)C(=O)O)C(=O)Nc1ccc(N2CCCC2=O)cc1 [Compound 3165]
- pEC50 [1]: 8.00 to 11.00

Structure (SMILES): COC(=O)[C@H](CCNC(=O)C(=O)NCc1ccc(OC)cc1)NC(=O)c1ccc(Nc2nc(NC3(c4ccc(Cl)cc4)CC3)nc(OCC(F)(F)F)n2)cc1 [Compound 1146]
- pEC50 [3]: 8.00 to 11.00

Structure (SMILES): CC(C)(CNC(=O)C(=O)Nc1ccc(-c2ccncc2)cc1)CNC(=O)c1ccc(Nc2nc(NC3(c4ccc(Cl)cc4)CC3)nc(OCC(F)(F)F)n2)cc1 [Compound 3796]
- pEC50 [2]: 8.00 to 11.00

Structure (SMILES): CC(C)(CNC(=O)c1ccc(Nc2nc(NC3(c4ccc(Cl)cc4)CC3)nc(OCC(F)(F)F)n2)cc1)NC(=O)C(=O)NCc1ccc(F)cc1 [Compound 3419]
- pEC50 [1]: 8.00 to 11.00

Structure (SMILES): CC(CNC(=O)C(=O)N1CCCCC1)CNC(=O)c1ccc(Nc2nc(NC3(c4ccc(Cl)cc4)CC3)nc(OCC(F)(F)F)n2)cc1 (stereo not shown) [Compound 3475]
- pEC50 [1]: 8.00 to 11.00

Structure (SMILES): CC(C)(CNC(=O)C(=O)Nc1ccc(Cl)cc1)CNC(=O)c1ccc(Nc2nc(NC3(c4ccc(Cl)cc4)CC3)nc(OCC(F)(F)F)n2)cc1F [Compound 3512]
- pEC50 [1]: 8.00 to 11.00

Structure (SMILES): O=C(NCC[C@H](NC(=O)c1ccc(Nc2nc(NC3(c4ccc(Cl)cc4)CC3)nc(OCC(F)(F)F)n2)cc1)C(=O)O)C(=O)NCC1(Cn2cccn2)CC1 [Compound 1428]
- pEC50 [3]: 8.00 to 11.00

Structure (SMILES): COC(=O)[C@H](CNC(=O)C(=O)Nc1ccc(-n2cccn2)cc1)NC(=O)c1ccc(Nc2nc(NC3(c4ccc(Cl)cc4)CC3)nc(OCC(F)(F)F)n2)cc1 [Compound 3108]
- pEC50 [1]: 8.00 to 11.00

Structure (SMILES): COC(=O)[C@H](CNC(=O)C(N)=O)NC(=O)c1ccc(Nc2nc(NC3(c4ccc(Cl)cc4)CC3)nc(OCC(F)(F)F)n2)cc1 [Compound 1002, (S)-methyl 3-(2-amino-2-oxoacetamido)-2-(4-(4-(1-(4-chlorophenyl)cyclopropylamino)-6-(2,2,2-trifluoroethoxy)-1,3,5-triazin-2-ylamino)benzamido)propanoate]
- pEC50 [6]: 8.68
- pEC50 [3]: 8.00 to 11.00

Structure (SMILES): COC(=O)[C@H](CCNC(=O)C(=O)Nc1cccc(Oc2ccccn2)c1)NC(=O)c1ccc(Nc2nc(NC3(c4ccc(Cl)cc4)CC3)nc(OCC(F)(F)F)n2)cc1 [Compound 3602]
- pEC50 [2]: 8.00 to 11.00

Structure (SMILES): O=C(NC[C@H](NC(=O)c1ccc(Nc2nc(NC3(c4ccc(Cl)cc4)CC3)nc(OCC(F)(F)F)n2)cc1)C(=O)O)C(=O)Nc1cccc(-c2cnco2)c1 [Compound 3752]
- pEC50 [2]: 8.00 to 11.00

Structure (SMILES): O=C(NC[C@H](NC(=O)c1ccc(Nc2nc(NC3(c4ccc(Cl)cc4)CC3)nc(OCC(F)(F)F)n2)cc1)C(=O)O)C(=O)Nc1cccc(Cc2ccccc2)c1 [Compound 3770]
- pEC50 [2]: 8.00 to 11.00

Structure (SMILES): CC(C)(CNC(=O)c1ccc(Nc2nc(NC3(c4ccc(Cl)cc4)CC3)nc(OCC(F)(F)F)n2)cc1)NC(=O)C(N)=O [Compound 3420]
- pEC50 [1]: 8.00 to 11.00

Structure (SMILES): Cn1cnc2ccc(NC(=O)C(=O)NCC(C)(C)CNC(=O)c3ccc(Nc4nc(NC5(c6ccc(Cl)cc6)CC5)nc(OCC(F)(F)F)n4)cc3)cc21 [Compound 3341]
- pEC50 [1]: 8.00 to 11.00

Structure (SMILES): COC(=O)[C@H](CNC(=O)C(=O)NCCc1cnn(C)c1)NC(=O)c1ccc(Nc2nc(NC3(c4ccc(Cl)cc4)CC3)nc(OCC(F)(F)F)n2)cc1 [Compound 1302]
- pEC50 [3]: 8.00 to 11.00

Structure (SMILES): COC(=O)[C@H](CNC(=O)C(=O)NCC1CCCN(C(=O)OC(C)(C)C)C1)NC(=O)c1ccc(Nc2nc(NC3(c4ccc(Cl)cc4)CC3)nc(OCC(F)(F)F)n2)cc1 (stereo partly shown) [Compound 1452]
- pEC50 [6]: 8.74
- pEC50 [3]: 8.00 to 11.00

Structure (SMILES): O=C(NC[C@H](NC(=O)c1ccc(Nc2nc(NC3(c4ccc(Cl)cc4)CC3)nc(OCC(F)(F)F)n2)cc1)C(=O)O)C(=O)Nc1cccc(-c2ccccc2)c1 [Compound 3751]
- pEC50 [5]: 9.85
- pEC50 [2]: 8.00 to 11.00

Structure (SMILES): Cc1cc2cccc(NC(=O)C(=O)NCC(C)(C)CNC(=O)c3ccc(Nc4nc(NC5(c6ccc(Cl)cc6)CC5)nc(OCC(F)(F)F)n4)cc3)c2o1 [Compound 3354]
- pEC50 [1]: 8.00 to 11.00

Structure (SMILES): Cc1ccc(NC(=O)C(=O)NCC(O)CNC(=O)c2ccc(Nc3nc(NC4(c5ccc(Cl)cc5)CC4)nc(OCC(F)(F)F)n3)cc2)cc1 (stereo not shown) [Compound 3367]
- pEC50 [1]: 8.00 to 11.00

Structure (SMILES): CC(F)Oc1cccc(NC(=O)C(=O)NCC[C@H](NC(=O)c2ccc(Nc3nc(NC4(c5ccc(Cl)cc5)CC4)nc(OCC(F)(F)F)n3)cc2)C(=O)O)c1 (stereo partly shown) [Compound 3633]
- pEC50 [5]: 10.24
- pEC50 [2]: 8.00 to 11.00
